Results reported in patent US6525001B1, “Substituted pyrimidine and pyridine herbicides” (Mid-American Commercialization Corporation, priority 1997, dated 2003).

Legend:
Format in all cases: in vivo
[1] = test system: bedstraw (Galium aparine); test: Test B pre-/postemergence; design: key: 0 is no effect; 10 is complete control
Method in brief: (§1)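 Seeds were planted and sprayed preemergence, while plants at 2 to 18 cm (1- to 4-leaf stage) were sprayed postemergence at the same time, with test chemical in a non-phytotoxic solvent mixture containing surfactant. After twelve to sixteen days in a greenhouse, injury was rated visually against untreated controls on a 0–10 scale.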

[2] = test system: broadleaf signalgrass (Brachiaria decumbens); test: Test B pre-/postemergence; design: key: 0 is no effect; 10 is complete control
Method in brief: as §1

[3] = test system: cocklebur (Xanthium strumarium); test: Test B pre-/postemergence; design: key: 0 is no effect; 10 is complete control
Method in brief: as §1

[4] = test system: corn (Zea mays); test: Test B pre-/postemergence; design: key: 0 is no effect; 10 is complete control
Method in brief: as §1

[5] = test system: giant foxtail (Setaria faberii); test: Test B pre-/postemergence; design: key: 0 is no effect; 10 is complete control
Method in brief: as §1

[6] = test system: momingglory (Ipomoea hederacea); test: Test B pre-/postemergence; design: key: 0 is no effect; 10 is complete control
Method in brief: as §1

[7] = test system: pigweed (Amaranthus retroflexus); test: Test B pre-/postemergence; design: key: 0 is no effect; 10 is complete control
Method in brief: as §1

[8] = test system: rape (Brassica napus); test: Test B pre-/postemergence; design: key: 0 is no effect; 10 is complete control
Method in brief: as §1

[9] = test system: sugar beet (Beta vulgaris); test: Test B pre-/postemergence; design: key: 0 is no effect; 10 is complete control
Method in brief: as §1

[10] = test system: velvetleaf (Abutilon theophrasti); test: Test B pre-/postemergence; design: key: 0 is no effect; 10 is complete control
Method in brief: as §1

[11] = test system: wheat (Triticum aestivum); test: Test B pre-/postemergence; design: key: 0 is no effect; 10 is complete control
Method in brief: as §1

[12] = test system: bamyardgrass (Echinochloa crus-galli); test: Test B flood test
Method in brief: (§2)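 Plants were grown to the 2-leaf stage before treatment with test chemical, then held in a greenhouse for twelve to sixteen days. Injury was visually rated against untreated controls on a 0–10 scale, where 0 is no effect and 10 is complete control.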

[13] = test system: duck salad (Heteranthera limosa); test: Test B flood test
Method in brief: as §2

[14] = test system: rice (Oryza sativa); test: Test B flood test
Method in brief: as §2

[15] = test system: smallflower flatsedge (Cyperus difformis); test: Test B flood test
Method in brief: as §2

[16] = Rate 62 g/ha, Postemergence (flood test)
[17] = Rate 125 g/ha, Postemergence, flood test
[18] = Rate 250 g/ha, Postemergence (flood test species)
[19] = Rate 500 g/ha, Postemergence (flood test species)

Structure (SMILES): Cc1cnc(-c2ccc(C(F)(F)F)cc2)nc1Cn1ccc(C(F)(F)F)n1 [compound 9]
- Plant response rating, Bedstraw ([1]; Rate 62 g/ha, Postemergence): 10
- Bedstraw plant response rating ([1]; Rate 62 g/ha, Preemergence): 4
- Plant response rating, Bedstraw ([1]; Rate 125 g/ha, Postemergence): 10
- Bedstraw plant response rating ([1]; Rate 125 g/ha, Preemergence): 7
- Plant response rating, Bedstraw ([1]; Rate 250 g/ha, Postemergence): 10
- Plant response rating, Bedstraw ([1]; Rate 250 g/ha, Preemergence): 10
- Plant response rating, Bedstraw ([1]; Rate 500 g/ha, Postemergence): 10
- Plant response rating, Bedstraw ([1]; Rate 500 g/ha, Preemergence): 9
- Plant response rating, B. signalgrass ([2]; Rate 62 g/ha, Postemergence): 5
- B. signalgrass plant response rating ([2]; Rate 62 g/ha, Preemergence): 8
- Plant response rating, B. signalgrass ([2]; Rate 125 g/ha, Postemergence): 8
- B. signalgrass plant response rating ([2]; Rate 125 g/ha, Preemergence): 9
- Plant response rating, B. signalgrass ([2]; Rate 250 g/ha, Postemergence): 9
- Plant response rating, B. signalgrass ([2]; Rate 250 g/ha, Preemergence): 10
- Plant response rating, B. signalgrass ([2]; Rate 500 g/ha, Postemergence): 9
- Plant response rating, B. signalgrass ([2]; Rate 500 g/ha, Preemergence): 10
- Plant response rating, Cocklebur ([3]; Rate 62 g/ha, Postemergence): 9
- Cocklebur plant response rating ([3]; Rate 62 g/ha, Preemergence): 0
- Plant response rating, Cocklebur ([3]; Rate 125 g/ha, Postemergence): 9
- Cocklebur plant response rating ([3]; Rate 125 g/ha, Preemergence): 2
- Plant response rating, Cocklebur ([3]; Rate 250 g/ha, Postemergence): 10
- Plant response rating, Cocklebur ([3]; Rate 250 g/ha, Preemergence): 9
- Plant response rating, Cocklebur ([3]; Rate 500 g/ha, Postemergence): 9
- Plant response rating, Cocklebur ([3]; Rate 500 g/ha, Preemergence): 9
- Plant response rating, Corn ([4]; Rate 62 g/ha, Postemergence): 3
- Corn plant response rating ([4]; Rate 62 g/ha, Preemergence): 0
- Plant response rating, Corn ([4]; Rate 125 g/ha, Postemergence): 4
- Corn plant response rating ([4]; Rate 125 g/ha, Preemergence): 1
- Plant response rating, Corn ([4]; Rate 250 g/ha, Postemergence): 5
- Plant response rating, Corn ([4]; Rate 250 g/ha, Preemergence): 3
- Plant response rating, Corn ([4]; Rate 500 g/ha, Postemergence): 5
- Plant response rating, Corn ([4]; Rate 500 g/ha, Preemergence): 4
- Plant response rating, Giant foxtail ([5]; Rate 62 g/ha, Postemergence): 4
- Giant foxtail plant response rating ([5]; Rate 62 g/ha, Preemergence): 10
- Plant response rating, Giant foxtail ([5]; Rate 125 g/ha, Postemergence): 5
- Giant foxtail plant response rating ([5]; Rate 125 g/ha, Preemergence): 10
- Plant response rating, Giant foxtail ([5]; Rate 250 g/ha, Postemergence): 9
- Plant response rating, Giant foxtail ([5]; Rate 250 g/ha, Preemergence): 10
- Plant response rating, Giant foxtail ([5]; Rate 500 g/ha, Postemergence): 9
- Plant response rating, Giant foxtail ([5]; Rate 500 g/ha, Preemergence): 10
- Plant response rating, Morningglory ([6]; Rate 62 g/ha, Postemergence): 10
- Morningglory plant response rating ([6]; Rate 62 g/ha, Preemergence): 8
- Plant response rating, Morningglory ([6]; Rate 125 g/ha, Postemergence): 10
- Morningglory plant response rating ([6]; Rate 125 g/ha, Preemergence): 10
- Plant response rating, Morningglory ([6]; Rate 250 g/ha, Postemergence): 10
- Plant response rating, Morningglory ([6]; Rate 250 g/ha, Preemergence): 10
- Plant response rating, Morningglory ([6]; Rate 500 g/ha, Postemergence): 10
- Plant response rating, Morningglory ([6]; Rate 500 g/ha, Preemergence): 10
- Plant response rating, Redroot pigweed ([7]; Rate 62 g/ha, Postemergence): 10
- Redroot pigweed plant response rating ([7]; Rate 62 g/ha, Preemergence): 9
- Plant response rating, Redroot pigweed ([7]; Rate 125 g/ha, Postemergence): 10
- Redroot pigweed plant response rating ([7]; Rate 125 g/ha, Preemergence): 10
- Plant response rating, Redroot pigweed ([7]; Rate 250 g/ha, Postemergence): 10
- Plant response rating, Redroot pigweed ([7]; Rate 250 g/ha, Preemergence): 10
- Plant response rating, Redroot pigweed ([7]; Rate 500 g/ha, Postemergence): 10
- Plant response rating, Redroot pigweed ([7]; Rate 500 g/ha, Preemergence): 10
- Plant response rating, Rape ([8]; Rate 62 g/ha, Postemergence): 9
- Rape plant response rating ([8]; Rate 62 g/ha, Preemergence): 9
- Plant response rating, Rape ([8]; Rate 125 g/ha, Postemergence): 10
- Rape plant response rating ([8]; Rate 125 g/ha, Preemergence): 9
- Plant response rating, Rape ([8]; Rate 250 g/ha, Postemergence): 10
- Plant response rating, Rape ([8]; Rate 250 g/ha, Preemergence): 10
- Plant response rating, Rape ([8]; Rate 500 g/ha, Postemergence): 10
- Plant response rating, Rape ([8]; Rate 500 g/ha, Preemergence): 10
- Plant response rating, Sugarbeets ([9]; Rate 62 g/ha, Postemergence): 10
- Sugarbeets plant response rating ([9]; Rate 62 g/ha, Preemergence): 9
- Plant response rating, Sugarbeets ([9]; Rate 125 g/ha, Postemergence): 10
- Sugarbeets plant response rating ([9]; Rate 125 g/ha, Preemergence): 10
- Plant response rating, Sugarbeets ([9]; Rate 250 g/ha, Postemergence): 10
- Plant response rating, Sugarbeets ([9]; Rate 250 g/ha, Preemergence): 10
- Plant response rating, Sugarbeets ([9]; Rate 500 g/ha, Postemergence): 9
- Plant response rating, Sugarbeets ([9]; Rate 500 g/ha, Preemergence): 10
- Plant response rating, Velvetleaf ([10]; Rate 62 g/ha, Postemergence): 10
- Velvetleaf plant response rating ([10]; Rate 62 g/ha, Preemergence): 7
- Plant response rating, Velvetleaf ([10]; Rate 125 g/ha, Postemergence): 10
- Velvetleaf plant response rating ([10]; Rate 125 g/ha, Preemergence): 8
- Plant response rating, Velvetleaf ([10]; Rate 250 g/ha, Postemergence): 10
- Plant response rating, Velvetleaf ([10]; Rate 250 g/ha, Preemergence): 9
- Plant response rating, Velvetleaf ([10]; Rate 500 g/ha, Postemergence): 9
- Plant response rating, Velvetleaf ([10]; Rate 500 g/ha, Preemergence): 9
- Plant response rating, Wheat ([11]; Rate 62 g/ha, Postemergence): 3
- Wheat plant response rating ([11]; Rate 62 g/ha, Preemergence): 1
- Plant response rating, Wheat ([11]; Rate 125 g/ha, Postemergence): 3
- Wheat plant response rating ([11]; Rate 125 g/ha, Preemergence): 2
- Plant response rating, Wheat ([11]; Rate 250 g/ha, Postemergence): 4
- Plant response rating, Wheat ([11]; Rate 250 g/ha, Preemergence): 5
- Plant response rating, Wheat ([11]; Rate 500 g/ha, Postemergence): 6
- Plant response rating, Wheat ([11]; Rate 500 g/ha, Preemergence): 6
- Plant response rating, Barnyardgrass [12, 16]: 5
- Plant response rating, Barnyardgrass [12, 17]: 5
- Plant response rating, Barnyardgrass [12, 18]: 7
- Plant response rating, Barnyardgrass [12, 19]: 8
- Plant response rating, Ducksalad [13, 16]: 4
- Plant response rating, Ducksalad [13, 17]: 6
- Plant response rating, Ducksalad [13, 18]: 7
- Plant response rating, Ducksalad [13, 19]: 6
- Plant response rating, Rice [14, 16]: 5
- Plant response rating, Rice [14, 17]: 6
- Plant response rating, Rice [14, 18]: 7
- Plant response rating, Rice [14, 19]: 8
- Plant response rating, S. Flatsedge [15, 16]: 8
- Plant response rating, S. Flatsedge [15, 17]: 9
- Plant response rating, S. Flatsedge [15, 18]: 9
- Plant response rating, S. Flatsedge [15, 19]: 9
